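96-well plates; 48 h exposure; 5 concentrations. Endpoints by linear interpolation between flanking doses. Not reached: highest tested concentration assigned. At the TGI there is no net growth.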
Legend:
Assay in all cases: DTP human tumour cell line panel, 48 h
[1] = test system: 786-0 renal
[2] = test system: A498 renal
[3] = test system: A549 NSCLC
[4] = test system: ACHN renal
[5] = test system: BT-549 breast
[6] = test system: CAKI-1 renal
[7] = test system: CCRF-CEM leukemia
[8] = test system: COLO 205 colon
[9] = test system: DU-145 prostate
[10] = test system: EKVX NSCLC
[11] = test system: HCC-2998 colon
[12] = test system: HCT-116 colon
[13] = test system: HCT-15 colon
[14] = test system: HL-60(TB) leukemia
[15] = test system: HOP-62 NSCLC
[16] = test system: HOP-92 NSCLC
[17] = test system: HS 578T breast
[18] = test system: HT29 colon
[19] = test system: IGROV1 ovarian
[20] = test system: K-562 leukemia
[21] = test system: KM12 colon
[22] = test system: LOX IMVI melanoma
[23] = test system: M14 melanoma
[24] = test system: MALME-3M melanoma
[25] = test system: MCF7 breast
[26] = test system: MDA-MB-231 breast
[27] = test system: MDA-MB-435
[28] = test system: MDA-N
[29] = test system: MOLT-4 leukemia
[30] = test system: NCI-H226 lung
[31] = test system: NCI-H23 lung
[32] = test system: NCI-H460 lung
[33] = test system: NCI-H522 lung
[34] = test system: NCI/ADR-RES ovarian
[35] = test system: OVCAR-3 ovarian
[36] = test system: OVCAR-4 ovarian
[37] = test system: OVCAR-5 ovarian
[38] = test system: OVCAR-8 ovarian
[39] = test system: PC-3 prostate
[40] = test system: RPMI-8226 leukemia
[41] = test system: RXF 393 renal
[42] = test system: SF-268 CNS
[43] = test system: SF-295 CNS
[44] = test system: SF-539 CNS
[45] = test system: SK-MEL-2 melanoma
[46] = test system: SK-MEL-28 melanoma
[47] = test system: SK-MEL-5 melanoma
[48] = test system: SK-OV-3 ovarian
[49] = test system: SN12C renal
[50] = test system: SNB-19 CNS
[51] = test system: SNB-75 CNS
[52] = test system: SR leukemia
[53] = test system: SW-620 colon
[54] = test system: T-47D breast
[55] = test system: TK-10 renal
[56] = test system: U251 CNS
[57] = test system: UACC-257 melanoma
[58] = test system: UACC-62 melanoma
[59] = test system: UO-31 renal

Nc1ccc2c(=S)c3ccccc3[nH]c2c1
TGI [1]: > 100 µM | TGI [2]: > 100 µM | TGI [3]: > 100 µM | TGI [4]: > 100 µM | TGI [5]: > 100 µM | TGI [6]: > 100 µM | TGI [7]: > 95.4 µM | TGI [8]: > 100 µM | TGI [9]: > 100 µM | TGI [10]: > 100 µM | TGI [11]: > 100 µM | TGI [12]: > 100 µM | TGI [13]: > 100 µM | TGI [14]: > 100 µM | TGI [15]: > 73 µM | TGI [16]: 98.9 µM | TGI [17]: > 100 µM | TGI [18]: > 100 µM | TGI [19]: > 100 µM | TGI [20]: > 100 µM | TGI [21]: > 100 µM | TGI [22]: > 100 µM | TGI [23]: > 83.3 µM | TGI [24]: > 100 µM | TGI [25]: > 100 µM | TGI [26]: > 100 µM | TGI [27]: > 100 µM | TGI [28]: > 100 µM | TGI [29]: > 84.4 µM | TGI [30]: > 100 µM | TGI [31]: > 100 µM | TGI [32]: > 100 µM | TGI [33]: 79.2 µM | TGI [34]: > 100 µM | TGI [35]: > 100 µM | TGI [36]: > 100 µM | TGI [37]: > 100 µM | TGI [38]: > 100 µM | TGI [39]: > 100 µM | TGI [40]: > 100 µM | TGI [41]: 98.9 µM | TGI [42]: > 100 µM | TGI [43]: > 100 µM | TGI [44]: > 100 µM | TGI [45]: > 100 µM | TGI [46]: > 100 µM | TGI [47]: > 100 µM | TGI [48]: 98.5 µM | TGI [49]: > 100 µM | TGI [50]: > 100 µM | TGI [51]: > 100 µM | TGI [52]: > 100 µM | TGI [53]: > 100 µM | TGI [54]: > 59 µM | TGI [55]: > 100 µM | TGI [56]: > 100 µM | TGI [57]: > 100 µM | TGI [58]: > 100 µM | TGI [59]: > 100 µM

COc1cc(CCN)c(OC)c(OC)c1
TGI [1]: > 100 µM | TGI [2]: > 100 µM | TGI [3]: > 100 µM | TGI [4]: > 100 µM | TGI [5]: > 100 µM | TGI [6]: > 100 µM | TGI [7]: > 100 µM | TGI [8]: > 100 µM | TGI [9]: > 100 µM | TGI [10]: > 100 µM | TGI [12]: > 100 µM | TGI [13]: > 100 µM | TGI [14]: > 100 µM | TGI [15]: > 100 µM | TGI [16]: > 100 µM | TGI [17]: > 100 µM | TGI [18]: > 100 µM | TGI [19]: > 100 µM | TGI [20]: > 100 µM | TGI [21]: > 100 µM | TGI [22]: > 100 µM | TGI [23]: > 100 µM | TGI [24]: > 100 µM | TGI [25]: > 100 µM | TGI [26]: > 100 µM | TGI [27]: 61.1 µM | TGI [28]: > 100 µM | TGI [29]: > 100 µM | TGI [31]: > 100 µM | TGI [32]: > 100 µM | TGI [33]: > 100 µM | TGI [34]: > 100 µM | TGI [35]: > 100 µM | TGI [36]: > 100 µM | TGI [37]: > 100 µM | TGI [38]: > 100 µM | TGI [39]: > 100 µM | TGI [40]: > 100 µM | TGI [41]: > 100 µM | TGI [42]: > 100 µM | TGI [43]: > 100 µM | TGI [45]: > 100 µM | TGI [46]: > 100 µM | TGI [47]: 54.9 µM | TGI [48]: > 100 µM | TGI [49]: > 100 µM | TGI [50]: > 100 µM | TGI [51]: > 100 µM | TGI [52]: > 100 µM | TGI [53]: > 100 µM | TGI [54]: > 100 µM | TGI [55]: > 100 µM | TGI [56]: > 100 µM | TGI [57]: > 100 µM | TGI [58]: > 100 µM | TGI [59]: > 100 µM

Cc1nc2ccccc2n1Cc1nnc(-c2ccccc2)o1
TGI [1]: > 100 µM | TGI [2]: > 100 µM | TGI [3]: > 100 µM | TGI [4]: > 100 µM | TGI [5]: > 100 µM | TGI [7]: > 100 µM | TGI [8]: > 100 µM | TGI [9]: > 100 µM | TGI [10]: > 100 µM | TGI [11]: > 100 µM | TGI [12]: > 100 µM | TGI [13]: > 100 µM | TGI [14]: > 100 µM | TGI [15]: > 100 µM | TGI [16]: > 100 µM | TGI [17]: > 100 µM | TGI [18]: > 100 µM | TGI [19]: > 100 µM | TGI [20]: > 100 µM | TGI [21]: > 100 µM | TGI [22]: > 100 µM | TGI [23]: > 100 µM | TGI [24]: > 100 µM | TGI [25]: > 100 µM | TGI [26]: > 100 µM | TGI [27]: 0.692 µM | TGI [28]: > 100 µM | TGI [29]: > 100 µM | TGI [31]: > 100 µM | TGI [32]: > 100 µM | TGI [33]: > 100 µM | TGI [34]: > 100 µM | TGI [35]: > 100 µM | TGI [37]: > 100 µM | TGI [38]: > 100 µM | TGI [39]: > 100 µM | TGI [40]: > 100 µM | TGI [41]: > 100 µM | TGI [42]: > 100 µM | TGI [43]: > 100 µM | TGI [44]: > 100 µM | TGI [45]: > 100 µM | TGI [46]: > 100 µM | TGI [47]: > 100 µM | TGI [48]: > 100 µM | TGI [49]: > 100 µM | TGI [50]: > 100 µM | TGI [51]: > 100 µM | TGI [52]: > 100 µM | TGI [53]: > 100 µM | TGI [54]: > 100 µM | TGI [55]: > 100 µM | TGI [56]: > 100 µM | TGI [57]: > 100 µM | TGI [58]: > 100 µM | TGI [59]: > 100 µM
